The record followed here is patent US20190350964A1, “ANTI-CANCER COMPOUNDS AND USES THEREOF” (NATIONAL UNIVERSITY OF SINGAPORE, priority 2016, published 2019).

For data set [1], the system named is human normal cell lines. The data set is described as follows: MTT cytotoxicity test, panel of human normal cell lines. Type of data set: cell-based. The following applies: mean over panel of human normal cell lines; MTT 72 h.
In data set [2] the target is T1, MIP18 family protein FAM96A (Homo sapiens, UniProt Q9H5X1).
T1 construct: After collecting data covering >8,000 proteins in lysates of normal BJ cells; endogenous in cells; host or cells: normal BJ cells, lysate
The data set is described as follows: MS-CETSA in normal BJ cell lysates. Type of data set: binding. The settings on record: lysate, 100 μM compound.
Procedure: (§1) Target identification was performed by cellular thermal shift assay (CETSA) coupled with quantitative mass spectrometry. In brief, normal BJ cells were lysed by combination of freeze/thaw and mechanical shearing with needle in buffer [50 mM HEPES (pH 7.5), 5 mM β-glycerophosphate, 0.1 mM Sodium Vanadate, 10 mM MgCl2, 1 mM TCEP and 1× Protease inhibitor Cocktail]. The cell debris was removed by centrifugation at 20,000 g for 20 min at 4° C. […] Each lysate was divided into 10 aliquots for heat treatment at the respective temperatures for 3 min in a 96-well thermocycler, followed by 3 min at 4° C. The lysate was centrifuged at 20,000 g for 20 min at 4° C. and the supernatant was transferred into microtubes for MS sample preparation.
(§2) After lysis, at least 100 μg of the protein (measured with a BCA assay) was subjected to reduction, denaturation and alkylation. Samples were subsequently incubated with sequencing grade LysC (Wako) and trypsin (Promega) for digestion overnight at 37° C. The digested samples were dried using a centrifugal vacuum evaporator, solubilized in 100 mM TEAB. […]
(§3) Proteins for which a low temperature plateau was not present were deleted using a cut off >0.85 for the average reading of the first three temperature points (in our experience proteins melting already at −37° C. are more prone to give false positives in a shift analysis).

Data set [3] has as its system Huh7. The data set is described as follows: MTT cytotoxicity test (GI50). Type of data set: cell-based. The settings on record: Homo sapiens, Huh-7; Huh7, cancer, liver; MTT 72 h. Background: Tetrazolium assays rely on reduction of a dye to a coloured formazan, in cell work by metabolically active cells.
Data set [4] has as its system RPE-1/hTert. The data set is described as follows: MTT cytotoxicity test (GI50). Type of data set: cell-based. The following applies: Homo sapiens, normal, retina, MTT 72 h.
Data set [5] concerns the target T2, Pyridoxal kinase (Homo sapiens, UniProt O00764).
T2 construct: After collecting data covering >8,000 proteins in lysates of normal BJ cells; endogenous in cells; host or cells: normal BJ cells, lysate
The data set is described as follows: MS-CETSA in normal BJ cell lysates. The following applies: lysate, 100 μM compound. Type of data set: binding.
Procedure: as §1, §2, §3

For data set [6], the system named is transformed BJ cells. The data set is described as follows: Time-lapse live-cell imaging and immunofluorescence of mitosis. Type of data set: cell-based, human. The settings on record: 2.5 μM. As for the experimental part:
For immunofluorescence analysis, cells grown on coverglass-bottom chamber slides (Lab-Tek) were fixed with 4% PFA (paraformaldehyde) for 15 min at 25° C. The fixed cells were permeabilized with 0.5% Triton X-100 and exposed to TBS containing 0.1% Triton X-100 and 2% BSA (AbDil). The following primary antibodies were diluted in PBS containing 1% BSA and 0.1% Triton X-100: anti-γ-tubulin (Sigma-Aldrich, #T6557; 1:1000) and anti-β-tubulin (Abcam, #ab18207; 1:2000). Isotype-specific secondary antibodies (1:500 dilution) coupled to Alexa Fluor 488, 594, or Cy5 (Molecular Probes) were used. Cells were counterstained with DAPI (Thermo Scientific). Images were acquired at RT with 3D-SIM mode using a Super Resolution Microscope (Nikon) equipped with an iXon EM+885 EMCCD camera (Andor) mounted on a Nikon Eclipse Ti-E inverted microscope with a CFI Apo TIRF (100×/1.40 oil) objective and processed with the NIS-Elements AR software. For time-lapse live-cell analysis, a Stage Top Incubator with Digital CO2 mixer (Tokai) was used, and images were acquired at 37° C.

The subject of data set [7] is AZ521. The data set is described as follows: MTT cytotoxicity test (GI50). Type of data set: cell-based. The settings on record: Homo sapiens, AZ-521; AZ521, cancer, gastric; MTT 72 h.
The subject of data set [8] is PI5P4Ks. The data set is described as follows: Cellular PI5P4Ks activity assay in HeLa cells (PIP4KII Activity Assay Kit). Type of data set: cell-based, human. The following applies: HeLa cells treated 24 h, lysate assayed with PI(5)P; read-out: IC50, combined cellular PI5P4Ks. As for the experimental part:
HeLa cells were treated with DMSO or compounds for 24 h. Cells were lysed with RIPA buffer (Sigma-Aldrich), and total protein concentrations were measured using a bicinchoninic acid protein assay kit (Thermo Scientific). Next, 10 μg of cell lysate was incubated with 1 μM PI(5)P and 500 nM ATP for 1 h at 37° C. PI5P4K activity was measured by recording luminescent signals (Tecan) using a PIP4KII Activity Assay Kit (Echelon) according to the manufacturer's instructions. For cell-free PI5P4Kα activity assays, serial dilutions of compounds were pre-incubated with 1 ng of PI5P4Kα (kind gift from Daiichi Sankyo Co., Ltd. and Daiichi Sankyo RD Novare Co., Ltd.) in reaction buffer [50 mM HEPES (pH 7.0), 13 mM MgCl2, 0.005% CHAPS, 0.01% BSA, 2.5 mM DTT] for 1 h at 25° C. DOPS (80 μM, Avanti polar lipids), PI(5)P (20 μM, Echelon) and ATP (10 μM, Sigma-Aldrich) were added and further incubated for 90 min at room temperature. PI5P4Kα activity was measured by recording luminescent signals (Tecan) using an ADP-Glo Kinase Assay (Promega) according to the manufacturer's protocol.

Data set [9] has as its system A549. The data set is described as follows: MTT cytotoxicity test (GI50). Type of data set: cell-based. The following applies: Homo sapiens; A549, cancer, others, lung; MTT 72 h.
For data set [10], the target named is T3, RNA-binding motif, single-stranded-interacting protein 1 (Homo sapiens, UniProt P29558).
T3 construct: After collecting data covering >8,000 proteins in lysates of normal BJ cells; endogenous in cells; host or cells: normal BJ cells, lysate
The data set is described as follows: MS-CETSA in normal BJ cell lysates. The settings on record: Uniprot B4DN88, lysate, 100 μM compound.
Procedure: as §1, §2, §3

In data set [11] the target is T4, Retinal rod rhodopsin-sensitive cGMP 3′,5′-cyclic phosphodiesterase subunit delta (Homo sapiens, UniProt O43924).
T4 construct: After collecting data covering >8,000 proteins in lysates of normal BJ cells; endogenous in cells; host or cells: normal BJ cells, lysate
The data set is described as follows: MS-CETSA in normal BJ cell lysates. Type of data set: binding. The settings on record: lysate, 100 μM compound.
Procedure: as §1, §2, §3

Data set [12] has as its system normal BJ cells. The data set is described as follows: BrdU incorporation / cell growth arrest. Type of data set: cell-based, human. How it is done: Cell death was assessed via Annexin V and/or PI (propidium iodide) staining according to the manufacturer's instructions (eBioscience). Cell growth arrest was assessed by direct measurement of DNA synthesis through incorporation of the nucleoside analog bromodeoxyuridine (BrdU). Briefly, BrdU (30 μM, Sigma-Aldrich) was added for 2 h before harvesting cells. Cells were subsequently stained with Pacific Blue-conjugated BrdU antibody (Invitrogen) for 1 h followed by PI staining. Stained cells were analyzed by MACSQuant (MACS). Three independent experiments were performed in triplicate. The percentage of Annexin V/PI- or BrdU-positive cells was quantified using Flow Jo software (Becton Dickinson). Where indicated, the combined activity of caspase-3/7 was determined using the caspase-Glo 3/7 Assay Kit (Promega) and normalized to the number of viable cells as determined by MTT assay.

Data set [13] has as its target T5, AP-3 complex subunit sigma-1 (Homo sapiens, UniProt Q92572).
T5 construct: After collecting data covering >8,000 proteins in lysates of normal BJ cells; endogenous in cells; host or cells: normal BJ cells, lysate
The data set is described as follows: MS-CETSA in normal BJ cell lysates. The settings on record: lysate, 100 μM compound. Type of data set: binding.
Procedure: as §1, §2, §3

In data set [14] the test system is normal BJ cells. The data set is described as follows: γ-H2AX immunofluorescence (DNA damage). Type of data set: cell-based, human. The settings on record: 48 h; a131 2.5 and 5 μM, etoposide 100 μM.
Procedure: For immunofluorescence analysis, cells grown on coverglass-bottom chamber slides (Lab-Tek) were fixed with 4% PFA (paraformaldehyde) for 15 min at 25° C. The fixed cells were permeabilized with 0.5% Triton X-100 and exposed to TBS containing 0.1% Triton X-100 and 2% BSA (AbDil). The following primary antibodies were diluted in PBS containing 1% BSA and 0.1% Triton X-100: anti-γ-tubulin (Sigma-Aldrich, #T6557; 1:1000) and anti-β-tubulin (Abcam, #ab18207; 1:2000). […] Cells were counterstained with DAPI (Thermo Scientific). […] For time-lapse live-cell analysis, a Stage Top Incubator with Digital CO2 mixer (Tokai) was used, and images were acquired at 37° C.
Data set [15] has as its system IST1. The data set is described as follows: MTT cytotoxicity test (GI50). Type of data set: cell-based. The following applies: Homo sapiens; IST1, cancer, gastric; MTT 72 h.
In data set [16] the test system is SNU620. The data set is described as follows: MTT cytotoxicity test (GI50). The following applies: Homo sapiens; SNU620, cancer, gastric; MTT 72 h. Type of data set: cell-based.
Data set [17] has as its system NCC24. The data set is described as follows: MTT cytotoxicity test (GI50). Type of data set: cell-based. The following applies: Homo sapiens; NCC24, cancer, gastric; MTT 72 h.

T1 sequence (Q9H5X1 whole entry): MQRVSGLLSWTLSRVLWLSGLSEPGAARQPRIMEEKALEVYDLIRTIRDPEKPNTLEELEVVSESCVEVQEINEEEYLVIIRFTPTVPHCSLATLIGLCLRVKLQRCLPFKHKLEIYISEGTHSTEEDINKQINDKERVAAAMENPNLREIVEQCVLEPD
T3 sequence (P29558 whole entry): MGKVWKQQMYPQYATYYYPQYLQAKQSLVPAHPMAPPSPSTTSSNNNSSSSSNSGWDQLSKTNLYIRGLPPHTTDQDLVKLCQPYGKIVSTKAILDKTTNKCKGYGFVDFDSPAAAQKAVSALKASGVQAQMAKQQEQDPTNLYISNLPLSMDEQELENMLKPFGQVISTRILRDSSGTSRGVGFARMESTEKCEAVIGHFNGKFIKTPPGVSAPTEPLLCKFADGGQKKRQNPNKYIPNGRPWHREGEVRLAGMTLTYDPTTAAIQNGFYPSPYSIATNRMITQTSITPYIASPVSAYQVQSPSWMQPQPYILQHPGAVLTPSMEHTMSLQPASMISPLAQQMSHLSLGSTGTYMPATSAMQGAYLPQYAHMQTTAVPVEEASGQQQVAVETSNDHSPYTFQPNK
T2 sequence (O00764 whole entry): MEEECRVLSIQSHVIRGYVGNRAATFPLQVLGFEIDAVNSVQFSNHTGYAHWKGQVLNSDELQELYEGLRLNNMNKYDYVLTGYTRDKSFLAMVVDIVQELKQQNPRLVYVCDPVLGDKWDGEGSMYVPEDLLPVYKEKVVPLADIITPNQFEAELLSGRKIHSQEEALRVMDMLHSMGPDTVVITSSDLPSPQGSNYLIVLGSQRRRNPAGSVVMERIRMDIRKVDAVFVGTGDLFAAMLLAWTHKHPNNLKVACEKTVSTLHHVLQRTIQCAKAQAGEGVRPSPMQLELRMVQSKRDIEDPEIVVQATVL
T5 sequence (Q92572 whole entry): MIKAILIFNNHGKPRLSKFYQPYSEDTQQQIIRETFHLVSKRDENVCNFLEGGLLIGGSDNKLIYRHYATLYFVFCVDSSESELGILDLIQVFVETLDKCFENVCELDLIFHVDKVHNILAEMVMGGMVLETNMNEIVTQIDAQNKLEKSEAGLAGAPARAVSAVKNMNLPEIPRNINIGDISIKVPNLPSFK
T5 sequence (O14617 whole entry partner): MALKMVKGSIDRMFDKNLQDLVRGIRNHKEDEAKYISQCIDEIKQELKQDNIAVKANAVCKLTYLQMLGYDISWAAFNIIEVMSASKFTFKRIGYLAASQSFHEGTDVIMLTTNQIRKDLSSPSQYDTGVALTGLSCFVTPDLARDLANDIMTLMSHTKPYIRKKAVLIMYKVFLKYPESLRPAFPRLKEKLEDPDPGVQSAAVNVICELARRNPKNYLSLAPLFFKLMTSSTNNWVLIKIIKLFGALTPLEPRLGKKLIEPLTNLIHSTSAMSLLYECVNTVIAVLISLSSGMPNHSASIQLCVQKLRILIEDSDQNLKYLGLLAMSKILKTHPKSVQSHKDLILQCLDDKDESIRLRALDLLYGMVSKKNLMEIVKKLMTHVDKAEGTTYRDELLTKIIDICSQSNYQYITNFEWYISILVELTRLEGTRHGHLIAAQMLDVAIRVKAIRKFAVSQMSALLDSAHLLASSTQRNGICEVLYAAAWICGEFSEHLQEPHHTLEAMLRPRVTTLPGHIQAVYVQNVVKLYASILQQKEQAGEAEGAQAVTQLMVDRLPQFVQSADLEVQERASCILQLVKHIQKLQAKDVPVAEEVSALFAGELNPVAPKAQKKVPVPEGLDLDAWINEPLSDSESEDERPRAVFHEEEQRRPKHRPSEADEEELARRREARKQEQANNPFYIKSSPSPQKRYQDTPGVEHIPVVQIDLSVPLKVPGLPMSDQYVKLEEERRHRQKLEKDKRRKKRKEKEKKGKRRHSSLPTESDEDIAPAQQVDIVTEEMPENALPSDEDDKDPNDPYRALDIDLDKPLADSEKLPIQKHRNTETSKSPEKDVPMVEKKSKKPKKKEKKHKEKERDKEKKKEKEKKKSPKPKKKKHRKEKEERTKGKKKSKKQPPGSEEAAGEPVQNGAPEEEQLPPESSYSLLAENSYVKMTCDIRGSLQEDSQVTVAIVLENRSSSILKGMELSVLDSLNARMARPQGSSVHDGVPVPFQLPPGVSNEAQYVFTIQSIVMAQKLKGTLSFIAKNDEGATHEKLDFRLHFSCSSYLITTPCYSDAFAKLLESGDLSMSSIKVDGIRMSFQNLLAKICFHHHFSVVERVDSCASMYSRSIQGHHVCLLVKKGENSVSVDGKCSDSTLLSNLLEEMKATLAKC
T5 sequence (O00203 whole entry partner): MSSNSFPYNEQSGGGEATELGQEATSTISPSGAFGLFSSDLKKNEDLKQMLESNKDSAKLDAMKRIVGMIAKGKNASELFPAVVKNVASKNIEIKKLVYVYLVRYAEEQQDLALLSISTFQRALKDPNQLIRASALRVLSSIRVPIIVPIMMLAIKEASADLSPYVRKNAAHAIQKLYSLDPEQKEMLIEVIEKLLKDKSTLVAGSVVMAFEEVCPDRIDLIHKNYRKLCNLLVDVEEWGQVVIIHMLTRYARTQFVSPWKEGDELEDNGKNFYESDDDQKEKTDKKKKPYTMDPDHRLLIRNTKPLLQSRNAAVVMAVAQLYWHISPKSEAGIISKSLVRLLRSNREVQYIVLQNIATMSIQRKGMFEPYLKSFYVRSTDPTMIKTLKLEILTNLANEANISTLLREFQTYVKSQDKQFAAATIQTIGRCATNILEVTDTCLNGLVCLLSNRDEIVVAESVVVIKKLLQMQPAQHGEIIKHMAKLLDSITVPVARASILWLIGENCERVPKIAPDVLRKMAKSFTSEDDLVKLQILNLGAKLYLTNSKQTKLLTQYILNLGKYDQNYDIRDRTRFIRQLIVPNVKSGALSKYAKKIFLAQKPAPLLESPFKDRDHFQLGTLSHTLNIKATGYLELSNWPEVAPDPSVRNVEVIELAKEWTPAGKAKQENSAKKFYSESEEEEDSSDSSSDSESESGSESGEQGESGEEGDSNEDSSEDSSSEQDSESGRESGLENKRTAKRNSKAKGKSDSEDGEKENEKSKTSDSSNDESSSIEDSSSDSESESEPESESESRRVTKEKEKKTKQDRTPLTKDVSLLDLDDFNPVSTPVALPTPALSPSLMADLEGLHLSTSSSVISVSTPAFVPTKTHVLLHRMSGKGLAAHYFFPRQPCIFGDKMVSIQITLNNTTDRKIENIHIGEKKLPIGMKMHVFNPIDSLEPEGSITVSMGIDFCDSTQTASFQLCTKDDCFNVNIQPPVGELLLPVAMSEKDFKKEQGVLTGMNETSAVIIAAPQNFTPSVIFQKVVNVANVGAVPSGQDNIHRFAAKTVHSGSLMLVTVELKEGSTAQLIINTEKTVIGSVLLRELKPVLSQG
T5 sequence (Q9Y2T2 whole entry partner): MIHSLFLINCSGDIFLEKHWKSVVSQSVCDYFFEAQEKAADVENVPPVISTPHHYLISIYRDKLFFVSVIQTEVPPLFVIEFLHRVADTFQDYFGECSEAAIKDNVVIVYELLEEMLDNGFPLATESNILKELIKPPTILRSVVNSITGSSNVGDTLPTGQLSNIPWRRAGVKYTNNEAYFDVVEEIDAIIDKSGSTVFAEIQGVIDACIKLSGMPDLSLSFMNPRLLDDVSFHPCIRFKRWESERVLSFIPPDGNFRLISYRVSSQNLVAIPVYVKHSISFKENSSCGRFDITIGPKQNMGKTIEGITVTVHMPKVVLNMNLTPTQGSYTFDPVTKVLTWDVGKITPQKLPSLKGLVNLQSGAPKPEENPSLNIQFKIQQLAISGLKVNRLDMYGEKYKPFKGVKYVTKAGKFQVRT
T4 sequence (O43924 whole entry): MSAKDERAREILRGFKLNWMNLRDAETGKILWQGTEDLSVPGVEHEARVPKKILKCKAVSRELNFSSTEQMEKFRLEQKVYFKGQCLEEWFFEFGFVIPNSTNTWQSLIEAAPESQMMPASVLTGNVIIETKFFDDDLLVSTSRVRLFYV

The GI50 is the concentration at which growth is held to half of that of the control. As a reminder, the IC50 is the concentration needed to halve the response being measured. On to `N#C/C(=C\c1cccc2cnccc12)c1c[nH]c2ccccc12` [a131, (Z)-2-(1H-indol-3-yl)-3-(5-isoquinolyl)prop-2-enenitrile], for which the concentration for 50% growth inhibition (GI50) was found to be 6500 nM in data set [1]; 1200 nM in data set [3]; 5200 nM in data set [4]; 2400 nM in data set [7]; 2000 nM in data set [9]; 2200 nM in data set [15]. Besides, the results for the 50% growth inhibitory concentration (GI50) in data set [16] and in data set [17] were 1000 nM and 1200 nM, respectively. Besides, the ED score in [2] is listed as 0.291; in data set [5] it was 0.4486; in data set [10] it was 0.3144; in [11], 0.3092; in data set [13], 0.3486. The ΔTm at 100 µM in data set [2] (read-out: mean Delta Tm) came out at 2.17 °C; in data set [5] (read-out: mean Delta Tm), 2.01 °C; in data set [10] (read-out: mean Delta Tm), 2.01 °C; in [11] (read-out: mean Delta Tm), 3.02 °C; in data set [13] (read-out: mean Delta Tm), 2.26 °C. In addition, the “mitotic arrest (time-lapse analysis)” value in data set [6] was “immediately induced mitotic arrest in transformed BJ cells”. Further, in [6] (32 h), the “centrosome de-clustering and multipolar mitotic spindles” value was “caused de-clustered centrosomes and multipolar mitotic-spindles in transformed BJ”. For the same compound, the IC50 in data set [8] was found to be 600 nM. In addition, the “cell cycle arrest (BrdU incorporation)” value in [12] (2.5 μM, 48 h) is “arrested normal BJ cells at the G1/S phase of the cell cycle with few BrdU incorporation”. The “reversibility of growth arrest after drug removal” value in [12] (5 μM for 2 or 4 days, then fresh media up to 11 days) was “transient and reversible after a131 removal”. The “DNA damage (γ-H2AX staining)” value in data set [14] is recorded as “did not do so”.
